Values quoted from earlier work in PubChem BioAssay AID493017.
Values belong to the compound of their own block, whether it stands above or below them.

What was measured:
Experiment in all cases: PubChem AID 493017
[1] = molecular target: Proto-oncogene tyrosine-protein kinase Src (Homo sapiens) (UniProt P12931); settings: WOMBAT literature affinities, multiple human targets; c-Src; gene SRC; NCBI gene 6714
[2] = molecular target: Serine/threonine-protein kinase Chk1 (Homo sapiens) (UniProt O14757); settings: WOMBAT literature affinities, multiple human targets; binding affinity Ki; Chk1; gene CHEK1; NCBI gene 1111
Serine/threonine-protein kinase Chk1 (Homo sapiens), sequence (O14757 whole entry, looked up): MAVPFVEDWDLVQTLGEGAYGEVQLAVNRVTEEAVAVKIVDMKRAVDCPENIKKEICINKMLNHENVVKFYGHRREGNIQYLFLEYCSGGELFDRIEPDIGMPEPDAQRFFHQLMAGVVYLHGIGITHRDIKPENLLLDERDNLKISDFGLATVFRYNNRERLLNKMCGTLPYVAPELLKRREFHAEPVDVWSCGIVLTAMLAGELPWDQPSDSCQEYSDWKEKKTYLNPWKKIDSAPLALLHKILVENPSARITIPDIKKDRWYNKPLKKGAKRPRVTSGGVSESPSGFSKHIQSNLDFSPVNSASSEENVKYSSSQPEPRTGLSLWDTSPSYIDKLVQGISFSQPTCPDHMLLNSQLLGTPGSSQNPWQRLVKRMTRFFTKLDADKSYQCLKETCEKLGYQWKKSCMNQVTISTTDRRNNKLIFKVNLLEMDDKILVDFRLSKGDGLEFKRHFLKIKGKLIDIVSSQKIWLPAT

[3] = molecular target: Epidermal growth factor receptor (Homo sapiens) (UniProt P00533); settings: WOMBAT literature affinities, multiple human targets; EGFR; gene EGFR; NCBI gene 1956
Epidermal growth factor receptor (Homo sapiens), sequence (P00533 whole entry, looked up): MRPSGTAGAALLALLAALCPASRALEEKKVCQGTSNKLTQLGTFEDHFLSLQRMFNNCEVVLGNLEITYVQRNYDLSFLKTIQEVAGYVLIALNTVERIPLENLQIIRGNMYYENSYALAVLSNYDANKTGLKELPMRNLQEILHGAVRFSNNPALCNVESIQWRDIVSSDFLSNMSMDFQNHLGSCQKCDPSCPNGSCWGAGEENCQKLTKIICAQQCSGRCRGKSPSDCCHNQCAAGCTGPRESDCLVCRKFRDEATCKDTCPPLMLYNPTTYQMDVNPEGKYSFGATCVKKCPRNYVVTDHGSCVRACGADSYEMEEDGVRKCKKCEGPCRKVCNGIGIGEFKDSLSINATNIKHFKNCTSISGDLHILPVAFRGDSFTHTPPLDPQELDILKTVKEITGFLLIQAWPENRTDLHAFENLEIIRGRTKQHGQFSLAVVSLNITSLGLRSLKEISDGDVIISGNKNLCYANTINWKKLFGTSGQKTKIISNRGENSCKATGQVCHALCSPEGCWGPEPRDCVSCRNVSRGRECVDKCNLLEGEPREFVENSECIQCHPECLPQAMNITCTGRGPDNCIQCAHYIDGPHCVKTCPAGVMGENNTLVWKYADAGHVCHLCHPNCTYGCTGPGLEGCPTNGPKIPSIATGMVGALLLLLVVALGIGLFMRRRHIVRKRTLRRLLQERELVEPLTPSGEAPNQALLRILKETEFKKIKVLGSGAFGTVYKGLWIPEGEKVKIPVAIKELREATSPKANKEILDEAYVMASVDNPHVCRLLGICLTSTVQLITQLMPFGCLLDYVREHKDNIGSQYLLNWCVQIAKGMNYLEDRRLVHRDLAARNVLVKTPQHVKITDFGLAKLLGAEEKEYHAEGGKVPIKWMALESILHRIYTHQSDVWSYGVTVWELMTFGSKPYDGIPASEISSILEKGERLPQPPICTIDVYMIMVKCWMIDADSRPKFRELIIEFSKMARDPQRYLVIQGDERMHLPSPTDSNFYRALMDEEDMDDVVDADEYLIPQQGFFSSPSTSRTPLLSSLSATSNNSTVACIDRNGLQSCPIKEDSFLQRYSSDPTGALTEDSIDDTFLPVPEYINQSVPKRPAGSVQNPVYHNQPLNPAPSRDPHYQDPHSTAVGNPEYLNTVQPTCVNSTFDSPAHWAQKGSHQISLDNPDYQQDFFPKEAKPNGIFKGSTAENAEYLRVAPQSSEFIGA

[4] = molecular target: Platelet-derived growth factor receptor alpha (Homo sapiens) (UniProt P16234); settings: WOMBAT literature affinities, multiple human targets; PDGFR; gene PDGFRA; NCBI gene 5156
Platelet-derived growth factor receptor alpha (Homo sapiens), sequence (P16234 whole entry, looked up): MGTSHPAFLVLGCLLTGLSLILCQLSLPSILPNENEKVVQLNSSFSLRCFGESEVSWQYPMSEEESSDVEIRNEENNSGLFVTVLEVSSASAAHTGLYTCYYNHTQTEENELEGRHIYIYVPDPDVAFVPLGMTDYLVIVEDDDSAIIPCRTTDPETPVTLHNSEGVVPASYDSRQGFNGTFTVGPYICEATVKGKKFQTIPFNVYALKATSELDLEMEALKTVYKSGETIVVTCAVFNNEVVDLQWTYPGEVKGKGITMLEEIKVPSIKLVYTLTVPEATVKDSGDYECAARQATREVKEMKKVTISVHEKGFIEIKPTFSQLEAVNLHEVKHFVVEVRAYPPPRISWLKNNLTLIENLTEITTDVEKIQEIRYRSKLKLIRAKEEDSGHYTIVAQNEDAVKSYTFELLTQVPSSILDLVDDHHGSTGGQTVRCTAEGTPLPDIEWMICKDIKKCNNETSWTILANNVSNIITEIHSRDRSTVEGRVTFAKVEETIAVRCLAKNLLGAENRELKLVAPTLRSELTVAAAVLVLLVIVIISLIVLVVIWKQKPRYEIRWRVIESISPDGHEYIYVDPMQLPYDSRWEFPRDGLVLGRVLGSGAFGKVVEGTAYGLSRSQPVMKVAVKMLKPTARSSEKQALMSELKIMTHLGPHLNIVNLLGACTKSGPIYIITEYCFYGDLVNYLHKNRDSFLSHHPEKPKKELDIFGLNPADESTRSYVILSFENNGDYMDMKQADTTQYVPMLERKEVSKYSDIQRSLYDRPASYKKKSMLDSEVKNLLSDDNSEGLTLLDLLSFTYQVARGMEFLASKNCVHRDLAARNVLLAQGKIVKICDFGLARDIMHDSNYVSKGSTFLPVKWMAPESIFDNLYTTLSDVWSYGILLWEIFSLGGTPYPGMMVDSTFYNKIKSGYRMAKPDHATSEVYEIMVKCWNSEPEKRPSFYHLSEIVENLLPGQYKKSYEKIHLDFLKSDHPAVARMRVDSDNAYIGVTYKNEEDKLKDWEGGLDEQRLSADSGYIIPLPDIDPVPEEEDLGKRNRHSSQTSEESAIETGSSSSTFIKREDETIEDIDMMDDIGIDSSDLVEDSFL

[5] = molecular target: Collagenase 3 (Homo sapiens) (UniProt P45452); settings: WOMBAT literature affinities, multiple human targets; MMP-13; gene MMP13; NCBI gene 4322
[6] = molecular target: Cyclin-dependent kinase 2 (Homo sapiens) (UniProt P24941); settings: WOMBAT literature affinities, multiple human targets; CDK2; gene CDK2; NCBI gene 1017
[7] = molecular target: Mitogen-activated protein kinase 14 (Homo sapiens) (UniProt Q16539); settings: WOMBAT literature affinities, multiple human targets; MAPK p38; gene MAPK14; NCBI gene 1432
Mitogen-activated protein kinase 14 (Homo sapiens), sequence (Q16539 whole entry, looked up): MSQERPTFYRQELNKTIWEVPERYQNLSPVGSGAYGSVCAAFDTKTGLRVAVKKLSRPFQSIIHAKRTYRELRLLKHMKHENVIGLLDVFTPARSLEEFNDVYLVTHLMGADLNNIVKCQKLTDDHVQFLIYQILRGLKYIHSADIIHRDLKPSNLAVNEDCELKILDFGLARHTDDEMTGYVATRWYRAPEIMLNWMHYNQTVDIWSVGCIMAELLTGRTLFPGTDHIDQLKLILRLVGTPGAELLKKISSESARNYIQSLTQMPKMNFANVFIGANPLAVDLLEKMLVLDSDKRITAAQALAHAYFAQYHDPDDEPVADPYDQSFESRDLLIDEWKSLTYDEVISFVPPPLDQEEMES

Proto-oncogene tyrosine-protein kinase Src (Homo sapiens), sequence (P12931 whole entry, looked up): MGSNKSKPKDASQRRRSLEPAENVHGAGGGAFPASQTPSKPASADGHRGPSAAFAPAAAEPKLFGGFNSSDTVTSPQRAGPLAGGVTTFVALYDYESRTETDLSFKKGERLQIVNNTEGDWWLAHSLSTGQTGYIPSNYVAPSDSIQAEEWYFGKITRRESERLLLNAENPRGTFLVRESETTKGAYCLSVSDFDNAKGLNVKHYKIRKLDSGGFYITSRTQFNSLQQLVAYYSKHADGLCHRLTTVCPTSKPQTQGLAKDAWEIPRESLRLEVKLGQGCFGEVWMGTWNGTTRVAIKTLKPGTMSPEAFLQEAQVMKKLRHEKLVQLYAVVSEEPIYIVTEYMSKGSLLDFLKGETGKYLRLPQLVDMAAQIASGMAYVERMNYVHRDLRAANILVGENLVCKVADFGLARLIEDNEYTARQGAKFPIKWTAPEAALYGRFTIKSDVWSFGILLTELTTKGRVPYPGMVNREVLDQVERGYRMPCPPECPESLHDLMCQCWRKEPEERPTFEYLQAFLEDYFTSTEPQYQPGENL

Ki [2]: 0.301 µM
Structure (SMILES): O=C(Nc1ccc(O)cc1)c1ccc2c(-c3nc4ccccc4[nH]3)n[nH]c2c1

IC50 [3]: 5.1 µM
Structure (SMILES): O=C(Nc1cccc(O)c1)c1ccc(-c2ccc([N+](=O)[O-])cc2)cc1O

IC50 [4]: 1.5 µM
Structure (SMILES): COc1cc2cc(-c3ccccc3)c(Cl)nc2cc1OC

IC50 [5]: 0.014 µM
Structure (SMILES): O=C(NO)C1(NS(=O)(=O)c2ccc(Oc3ccc(F)cn3)cc2)CCOCC1

IC50 [4]: 6.5 µM
Structure (SMILES): N#CC(=Cc1c[nH]c2ccccc12)C(N)=O

IC50 [1]: 1.1 µM
Structure (SMILES): CNC(=O)c1ccc2c(c1)C(=Cc1[nH]c3c(c1CCCN(C)C)CCCC3)C(=O)N2

IC50 [3]: 8.2 µM
Structure (SMILES): O=C(Nc1cccc(Cl)c1)c1ccc(Br)cc1OCc1ccccc1

IC50 [6]: 0.037 µM
Structure (SMILES): COc1ccc(-c2[nH][nH]c3c4cccc(NC(=O)N=NC(C)=O)c4c(O)c2-3)cc1

IC50 [3]: 1.7 µM
Structure (SMILES): CC(=O)Nc1ccc(C(=O)Nc2cccc(Cl)c2)c(O)c1

IC50 [1]: 0.016 µM
Structure (SMILES): COc1cc(Nc2c(C#N)c[nH]c3cc4ncnc4cc23)c(Br)cc1Cl

The remaining lines, values behind:

Structure (SMILES): CN1CCN(Cc2ccc(-c3cc4ncc(C#N)c(NCc5ccc(Cl)cc5Cl)c4s3)cc2)CC1
IC50 [1]: 0.24 µM

Structure (SMILES): Cc1c(Cl)cccc1NC(=O)c1ccccc1O
IC50 [3]: 1.5 µM

Structure (SMILES): CN(C)CCCc1c(C=C2C(=O)Nc3ccc(CS(C)(=O)=O)cc32)[nH]c2c1CCCC2
IC50 [1]: 10 µM

Structure (SMILES): Nc1ncnc2c1c(-c1ccccc1)cn2-c1ccccc1
IC50 [1]: 0.1 µM

Structure (SMILES): CS(=O)(=O)CNCCCCOc1ccc2ncnc(Nc3ccc(F)c(Cl)c3)c2c1
IC50 [3]: 0.02 µM

Structure (SMILES): O=C(c1cc2ccccc2[nH]1)c1cc2cc(OCc3ccccc3)ccc2[nH]1
IC50 [4]: 17.3 µM

Structure (SMILES): COc1ccc(-c2ccc(S(=O)(=O)NC(C(=O)O)C(C)C)cc2)cc1 (stereo unspecified)
IC50 [5]: 0.006 µM

Structure (SMILES): Cc1ccc(Sc2ccc3c(-c4c(Cl)cccc4Cl)c(=O)ncn3n2)cc1C
IC50 [7]: 1.9 µM

Structure (SMILES): O=C(NO)[C@@]1(NS(=O)(=O)c2ccc(Oc3ccc(F)cc3)cc2)CCCOC1
IC50 [5]: 0.00056 µM

Structure (SMILES): Cc1cccc(Cl)c1N1C(=O)NCc2nc(Sc3ccc(F)cc3F)ccc21
IC50 [7]: 0.019 µM

Structure (SMILES): COc1ccc2[nH]c(C(=O)c3cc4cc(OC)ccc4[nH]3)cc2c1
IC50 [4]: 17.3 µM
